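A five-concentration, 48-hour dose response in 96-well plates underlies each endpoint, interpolated linearly between surrounding concentrations. TGI marks complete inhibition of growth.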
Columns and labels:
Experiment in all cases: NCI-60 cell line screen, 48 h
A549 NSCLC = system: A549 NSCLC
CCRF-CEM leukemia = system: CCRF-CEM leukemia
COLO 205 colon = system: COLO 205 colon
EKVX NSCLC = system: EKVX NSCLC
HL-60(TB) leukemia = system: HL-60(TB) leukemia
LOX IMVI melanoma = system: LOX IMVI melanoma
M14 melanoma = system: M14 melanoma
MALME-3M melanoma = system: MALME-3M melanoma
NCI-H522 lung = system: NCI-H522 lung
NCI/ADR-RES ovarian = system: NCI/ADR-RES ovarian
OVCAR-4 ovarian = system: OVCAR-4 ovarian
SF-268 CNS = system: SF-268 CNS
SK-MEL-28 melanoma = system: SK-MEL-28 melanoma
SK-MEL-5 melanoma = system: SK-MEL-5 melanoma
SN12C renal = system: SN12C renal
SNB-19 CNS = system: SNB-19 CNS
SR leukemia = system: SR leukemia
T-47D breast = system: T-47D breast
TK-10 renal = system: TK-10 renal
UACC-62 melanoma = system: UACC-62 melanoma

SMILES	TGI (A549 NSCLC) [µM]	TGI (CCRF-CEM leukemia) [µM]	TGI (COLO 205 colon) [µM]	TGI (EKVX NSCLC) [µM]	TGI (HL-60(TB) leukemia) [µM]	TGI (LOX IMVI melanoma) [µM]	TGI (M14 melanoma) [µM]	TGI (MALME-3M melanoma) [µM]	TGI (NCI-H522 lung) [µM]	TGI (NCI/ADR-RES ovarian) [µM]	TGI (OVCAR-4 ovarian) [µM]	TGI (SF-268 CNS) [µM]	TGI (SK-MEL-28 melanoma) [µM]	TGI (SK-MEL-5 melanoma) [µM]	TGI (SN12C renal) [µM]	TGI (SNB-19 CNS) [µM]	TGI (SR leukemia) [µM]	TGI (T-47D breast) [µM]	TGI (TK-10 renal) [µM]	TGI (UACC-62 melanoma) [µM]
O=C(O)CNC(=O)CO/N=C1/C(c2c(O)[nH]c3ccccc23)=Nc2ccccc21	> 100	> 100	> 100	> 100	> 100	> 100	> 100	> 100	> 100	> 100	> 100	> 100	> 100	> 100	> 100	> 100	> 100	> 100	> 100	> 100
CC(C)/C(Cl)=N\OC(=O)Nc1cccc(F)c1	34.9	5.07	5.87	31.8	4.05	5.31	10.8	14.4	2.98	37	25.4	58	31.9	28.4	32.2	> 100	6.6	61.6	28.1	45.3
CC(C)CNC(=O)CCc1cccc2c1oc1c(CCN)cccc12	35.6	17.6	19.7	27.6	13.3	27.9	30.5	32	29.6	40.3	34	31.2	23.8	27.2	32.2	15.9	29	37.1		32
CC1=NN(c2cccc(Cl)c2)C2(SCC(=O)N2c2nc3ccccc3s2)/C1=C\c1ccc(Cl)cc1 (stereo not given)		3.31		> 100	24.3	45.2	43.5		39.2	> 100	55.1	46.2	72.4	30.8			15.9	> 100	> 100	
CCCCCCCC1(N=[N+]=[N-])C(=O)c2ccccc2N(C)C1=O (stereo not given)	> 100	> 100	> 100	> 100	99.1	> 100	> 100	> 100	> 100	> 100	> 100	> 100	> 100	> 100	> 100	> 100	> 100	> 100	> 100	> 100
CCC(=O)Nc1ccc(N=Cc2cccc(Oc3ccccc3)c2)cc1	> 100	63.9	> 100	> 100	63	> 100	> 100	> 100	> 100	> 100	> 100	> 100	> 100	> 100	> 100	> 100	67.9	> 100		> 100
C#CCOC(=O)c1ccccc1O		> 100	> 100	> 100	> 100	> 100	> 100		> 100	> 100	> 100	> 100		> 100	> 100	> 100	> 100	> 100	> 100	> 100
CC(C)=CCC[C@@H](C)C1=C(O)C(Nc2ccccc2Br)=C(C)C(=O)C1=O	44.6	12.7	32.3	48.3	5.52	> 100	29.8	26		28.8	> 100	> 50.4	> 80.6	16.1	28.2	73	45	66.4	68.2	38.5
O=C1C=CC2(O[C@H](c3ccccc3)[C@@H](c3ccccc3)O2)C(SC(=O)c2ccccc2)C1 (stereo not given in full)	17.4		2.69		7.7	2.33	3.07	6.54		3.22	5.13	3.02	3.55	2.87	6.42	5.63	> 100	7.89	6.64	5.84
Cc1cc(C)nc(NS(=O)(=O)c2ccc(Nc3nncc(=O)n3N)cc2)n1	> 100	11.6	> 100	62.7	40.2	27.7	> 100	41.6	26.2	55.9	32.9	39.7	74.6	33.1		83	42.4	38.3		51.2
CCc1n[nH]c(=S)n1/N=C\c1ccc(-c2ccccc2Cl)o1	> 100	> 100	> 100	> 100	68	66.6	> 100	> 100	65.8	53.7	> 100	> 100		31.2	> 100	> 100	53.5	87.5	> 100	> 100
CC(C)(C)OC(=O)N(O)[C@@H]1C=C[C@H](n2cnc3c(N)ncnc32)C1	> 100	> 100	> 100	> 100		> 100	> 100	> 100	> 100	> 100	> 100	> 100	> 100	> 100	> 100	> 100	> 100	> 100	> 100	> 100
COc1cc(OC)cc(Oc2nc3ccccc3nc2C(=O)O)c1	> 100	> 100	> 100	> 100	> 100	> 100	> 100	> 100	> 100	> 100	> 100	> 100	> 100	> 100		> 100	> 100	> 100	> 100	> 100

From PubChem BioAssay (NCI)
